Like-named read-outs stand apart in the source and are kept apart here.
How the values were obtained:
Pseudomonas aeruginosa = assay: Checkerboard broth dilution synergy study (mic); type: cell-based; conditions: Table II; for MIC: Pseudomonas aeruginosa, read-out: mic, drug alone
Serratia marcescens = assay: Checkerboard broth dilution synergy study (mic); type: cell-based; conditions: Table II; for MIC: Serratia marcescens, read-out: mic, drug alone
E. cloacae = assay: Checkerboard broth dilution synergy study (mic); type: cell-based; conditions: Table II; for MIC: Enterobacter cloacae, read-out: mic, drug alone
Klebsiella pneumoniae = assay: Checkerboard broth dilution synergy study (mic); type: cell-based; conditions: Table II; for MIC: Klebsiella pneumoniae, read-out: mic, drug alone
Proteus rettgeri = assay: Checkerboard broth dilution synergy study (mic); type: cell-based; conditions: Table II, strain 65
Proteus mirabilis = assay: Checkerboard broth dilution synergy study (mic); type: cell-based; conditions: Table II, strain Allen
Proteus vulgaris = assay: Checkerboard broth dilution synergy study (mic); type: cell-based; conditions: Table II; for MIC: Proteus vulgaris, read-out: mic, drug alone
E. coli = assay: Checkerboard broth dilution synergy study (mic); type: cell-based; conditions: Table II; for MIC: Escherichia coli, read-out: mic, drug alone
Pseudomonas maltophilia = assay: Checkerboard broth dilution synergy study (mic); type: cell-based; conditions: Table II; for MIC: Stenotrophomonas maltophilia, read-out: mic, drug alone
Acinetobacter sp. = assay: Checkerboard broth dilution synergy study (mic); type: cell-based; conditions: Table II; for MIC: Acinetobacter, read-out: mic, drug alone
[1] = single 1 mg/kg (i.m.), healthy volunteers; cited from earlier work

For `NC[C@H]1O[C@H](O[C@H]2[C@H](O)[C@@H](O[C@H]3O[C@H](CO)[C@@H](O)[C@H](N)[C@H]3O)[C@H](N)C[C@@H]2N)[C@H](N)C[C@@H]1O` [tobramycin], which MIC (Pseudomonas aeruginosa; strain 84) is on record?
Its MIC is 8 µg/mL.

And the MIC (Pseudomonas aeruginosa; strain 366)?
Its MIC is 4 µg/mL.

And the MIC (Pseudomonas aeruginosa; strain 424)?
Its MIC is 64 µg/mL.

What about the MIC (Pseudomonas aeruginosa; strain 447) of the same compound?
The MIC was 64 µg/mL.

And the MIC (Pseudomonas aeruginosa; strain 1484)?
The MIC was 64 µg/mL.

And the MIC (Pseudomonas aeruginosa; strain Davis)?
The MIC was over 64 µg/mL.

And the “mic of each drug in combination I + T” value (Pseudomonas aeruginosa; strain 84)?
The value was 1 µg/mL.

What about the “mic of each drug in combination I + T” value (Pseudomonas aeruginosa; strain 366) of the same compound?
The value was 2 µg/mL.

And the “mic of each drug in combination I + T” value (Pseudomonas aeruginosa; strain 424)?
The value was 0.5 µg/mL.

And the “mic of each drug in combination I + T” value (Pseudomonas aeruginosa; strain 447)?
The value was under 0.5 µg/mL.

What about the “mic of each drug in combination I + T” value (Pseudomonas aeruginosa; strain 1484) of the same compound?
Its value is 2 µg/mL.

And the “mic of each drug in combination I + T” value (Pseudomonas aeruginosa; strain Davis)?
The value was 1 µg/mL.

And the MIC (Serratia marcescens; strain 100)?
The MIC was 16 µg/mL.

What about the MIC (Serratia marcescens; strain 302-2) of the same compound?
Its MIC is 16 µg/mL.

And the MIC (Serratia marcescens; strain 796)?
The MIC was 64 µg/mL.

What about the MIC (Serratia marcescens; strain 14142) of the same compound?
Its MIC is over 64 µg/mL.

And the MIC (Serratia marcescens; strain Townsend)?
Its MIC is 32 µg/mL.

And the “mic of each drug in combination I + T” value (Serratia marcescens; strain 100)?
Its value is 8 µg/mL.

And the “mic of each drug in combination I + T” value (Serratia marcescens; strain 302-2)?
The value was 1 µg/mL.

And the “mic of each drug in combination I + T” value (Serratia marcescens; strain 796)?
Its value is 16 µg/mL.

And the “mic of each drug in combination I + T” value (Serratia marcescens; strain 14142)?
Its value is 4 µg/mL.

What about the “mic of each drug in combination I + T” value (Serratia marcescens; strain Townsend) of the same compound?
The value was 0.5 µg/mL.

And the MIC (E. cloacae; strain 1246)?
The MIC was 16 µg/mL.

What about the MIC (E. cloacae; strain 1253) of the same compound?
Its MIC is 32 µg/mL.

And the MIC (E. cloacae; strain 1415)?
The MIC was 32 µg/mL.

What about the MIC (E. cloacae; strain B293) of the same compound?
Its MIC is over 64 µg/mL.

And the “mic of each drug in combination I + T” value (E. cloacae; strain 1246)?
Its value is 0.5 µg/mL.

What about the “mic of each drug in combination I + T” value (E. cloacae; strain 1253) of the same compound?
Its value is 2 µg/mL.

What about the “mic of each drug in combination I + T” value (E. cloacae; strain 1415) of the same compound?
Its value is under 0.015 µg/mL.

What about the “mic of each drug in combination I + T” value (E. cloacae; strain B293) of the same compound?
The value was 8 µg/mL.

And the MIC (Klebsiella pneumoniae; strain 130)?
Its MIC is 16 µg/mL.

What about the MIC (Klebsiella pneumoniae; strain 214-1) of the same compound?
Its MIC is 32 µg/mL.

And the MIC (Klebsiella pneumoniae; strain 463)?
Its MIC is 16 µg/mL.

And the MIC (Klebsiella pneumoniae; strain 512)?
The MIC was over 64 µg/mL.

What about the MIC (Klebsiella pneumoniae; strain 933) of the same compound?
The MIC was 32 µg/mL.

And the MIC (Klebsiella pneumoniae; strain 1204-2)?
Its MIC is over 64 µg/mL.

And the “mic of each drug in combination I + T” value (Klebsiella pneumoniae; strain 130)?
The value was 0.5 µg/mL.

And the “mic of each drug in combination I + T” value (Klebsiella pneumoniae; strain 214-1)?
Its value is 0.03 µg/mL.

And the “mic of each drug in combination I + T” value (Klebsiella pneumoniae; strain 463)?
Its value is under 0.015 µg/mL.

And the “mic of each drug in combination I + T” value (Klebsiella pneumoniae; strain 512)?
The value was 0.06 µg/mL.

What about the “mic of each drug in combination I + T” value (Klebsiella pneumoniae; strain 933) of the same compound?
The value was 0.5 µg/mL.

And the “mic of each drug in combination I + T” value (Klebsiella pneumoniae; strain 1204-2)?
Its value is 0.03 µg/mL.

And the MIC (Proteus rettgeri; Providencia rettgeri, read-out: mic, drug alone)?
The MIC was 64 µg/mL.

What about the “mic of each drug in combination I + T” value (Proteus rettgeri) of the same compound?
Its value is 1 µg/mL.

What about the MIC (Proteus mirabilis; Proteus mirabilis, read-out: mic, drug alone) of the same compound?
Its MIC is 32 µg/mL.

And the “mic of each drug in combination I + T” value (Proteus mirabilis)?
The value was 1 µg/mL.

What about the MIC (Proteus vulgaris; strain 363) of the same compound?
Its MIC is 64 µg/mL.

What about the MIC (Proteus vulgaris; strain Shide) of the same compound?
Its MIC is 32 µg/mL.

What about the “mic of each drug in combination I + T” value (Proteus vulgaris; strain 363) of the same compound?
Its value is 1 µg/mL.

What about the “mic of each drug in combination I + T” value (Proteus vulgaris; strain Shide) of the same compound?
The value was 1 µg/mL.

What about the MIC (E. coli; strain 46-2) of the same compound?
The MIC was over 64 µg/mL.

What about the MIC (E. coli; strain 77-3) of the same compound?
Its MIC is 64 µg/mL.

What about the MIC (E. coli; strain 136-3) of the same compound?
The MIC was 64 µg/mL.

What about the MIC (E. coli; strain 1260) of the same compound?
The MIC was over 64 µg/mL.

What about the MIC (E. coli; strain 1262) of the same compound?
Its MIC is 16 µg/mL.

And the MIC (E. coli; strain Briley)?
The MIC was 4 µg/mL.

What about the MIC (E. coli; strain Dill) of the same compound?
Its MIC is over 64 µg/mL.

And the “mic of each drug in combination I + T” value (E. coli; strain 46-2)?
The value was 4 µg/mL.

And the “mic of each drug in combination I + T” value (E. coli; strain 77-3)?
The value was 0.25 µg/mL.

And the “mic of each drug in combination I + T” value (E. coli; strain 136-3)?
The value was 4 µg/mL.

And the “mic of each drug in combination I + T” value (E. coli; strain 1253)?
The value was 4 µg/mL.

And the “mic of each drug in combination I + T” value (E. coli; strain 1260)?
Its value is 0.5 µg/mL.

What about the “mic of each drug in combination I + T” value (E. coli; strain 1262) of the same compound?
Its value is 8 µg/mL.

What about the “mic of each drug in combination I + T” value (E. coli; strain 1415) of the same compound?
Its value is 8 µg/mL.

What about the “mic of each drug in combination I + T” value (E. coli; strain Briley) of the same compound?
Its value is 8 µg/mL.

What about the “mic of each drug in combination I + T” value (E. coli; strain Dill) of the same compound?
The value was 4 µg/mL.

What about the MIC (Pseudomonas maltophilia; strain 10) of the same compound?
The MIC was 64 µg/mL.

What about the MIC (Pseudomonas maltophilia; strain 11) of the same compound?
Its MIC is 4 µg/mL.

What about the MIC (Pseudomonas maltophilia; strain 505) of the same compound?
Its MIC is 32 µg/mL.

And the “mic of each drug in combination I + T” value (Pseudomonas maltophilia; strain 10)?
Its value is 8 µg/mL.

And the “mic of each drug in combination I + T” value (Pseudomonas maltophilia; strain 11)?
The value was 2 µg/mL.

And the “mic of each drug in combination I + T” value (Pseudomonas maltophilia; strain 505)?
The value was 0.5 µg/mL.

And the MIC (Acinetobacter sp.; strain 28-1)?
Its MIC is 0.5 µg/mL.

And the MIC (Acinetobacter sp.; strain 28-2)?
Its MIC is 4 µg/mL.

And the MIC (Acinetobacter sp.; strain 106)?
The MIC was 1 µg/mL.

And the MIC (Acinetobacter sp.; strain 107)?
The MIC was 4 µg/mL.

What about the MIC (Acinetobacter sp.; strain 109) of the same compound?
The MIC was 1 µg/mL.

And the “mic of each drug in combination I + T” value (Acinetobacter sp.; strain 28-1)?
Its value is 0.5 µg/mL.

What about the “mic of each drug in combination I + T” value (Acinetobacter sp.; strain 28-2) of the same compound?
Its value is 0.5 µg/mL.

And the “mic of each drug in combination I + T” value (Acinetobacter sp.; strain 106)?
The value was 0.5 µg/mL.

And the “mic of each drug in combination I + T” value (Acinetobacter sp.; strain 107)?
The value was 0.5 µg/mL.

What about the “mic of each drug in combination I + T” value (Acinetobacter sp.; strain 109) of the same compound?
Its value is 0.5 µg/mL.

What about the peak serum concentrations [1] of the same compound?
Its peak serum concentrations is 4.4 µg/mL.

From patent publication US4452778A, “Synergistic antibacterial compositions and method of treatment of infections caused by multiple antibiotic-resistant organisms” (Eli Lilly and Company, priority 1981, dated 1984)
